Here are results for eleven compounds from patent US11767323B2, “Tricyclic pyridone compounds as JAK2 V617F inhibitors” (Incyte Corporation, priority 2020, dated 2023).

Where only a bound is given, the exact number is not on record here.

Test [1] addresses pseudo-kinase domain (JH2, amino-acids 536-812) of human Wild Type JAK2 (Homo sapiens (Human), UniProt O60674, F794H/W659A/W777A). Briefly: JAK2 LanthaScreen JH2-WT Binding Assay. The settings on record: JAK2 JH2-WT 0.145 nM, 50 nM tracer, 1 hour at 25° C.; read-out: JH2 BIND WT IC50. On the procedure:
Example B. JAK2 LanthaScreen JH2-WT Binding Assay
(§1) JAK2 JH2-WT binding assay utilizes pseudo-kinase domain (JH2, amino-acids 536-812 with 3 surface mutations W659A, W777A, F794H) of human Wild Type JAK2 expressed as C-terminal His-Avi-tagged, biotinylated protein in a baculovirus expression system (BPS Bioscience, Catalog #79463). The assay was conducted in black 384-well polystyrene plates in a final reaction volume of 20 μL. JAK2 JH2-WT (0.145 nM) was incubated with compounds (100 nL serially diluted in DMSO) in the presence of 50 nM Fluorescent JAK2-JH2 Tracer (MedChem Express Catalog #HY-102055) and 0.25 nM Streptavidin-Tb cryptate (Cisbio Part #610SATLB) in assay buffer (50 mM Tris, pH=7.5, 10 mM MgCl2, 0.01% Brij-35, 0.1% BSA, 1 mM EGTA, 5% Glycerol and 5 mM DTT). Non-specific binding was accessed in the presence of 2 mM ATP. After incubation for 1 hour at 25° C., LanthaScreen signals were read on a PHERAstar FS plate reader (BMG LAB TECH). Data was analyzed with IDBS XLfit and GraphPad Prism 5.0 software using a four parameter dose response curve to determine IC50 for each compound.

In test [2] the target is catalytic domain (JH1, amino acids 808-1132) of human JAK2 (Homo sapiens (Human), UniProt O60674). Briefly: JAK2 HTRF Enzyme Activity Assay. Type of test: biochemical. The settings on record: JAK2 0.015 nM, ATP (30 μM or 1 mM), 60 minutes at 25° C. On the procedure:
Example D. JAK2 HTRF Enzyme Activity Assay
JAK2 enzyme activity assays utilize catalytic domain (JH1, amino acids 808-1132) of human JAK2 expressed as N-terminal His-tagged protein in a baculovirus expression system (BPS Bioscience, Catalog #40450). The assays was conducted in black 384-well polystyrene plates in a final reaction volume of 20 μL. JAK2 (0.015 nM) was incubated with compounds (100 nL serially diluted in DMSO) in the presence of ATP (30 μM or 1 mM) and 500 nM Biotin-labeled EQEDEPEGDYFEWLE (SEQ ID NO.: 1) peptide (BioSource International, custom synthesis) in assay buffer (50 mM Tris, pH=7.5, 10 mM MgCl2, 0.01% Brij-35, 0.1% BSA, 1 mM EGTA, 5% Glycerol and 5 mM DTT) for 60 minutes at 25° C. The reactions were stopped by the addition of 10 μL of detection buffer (50 mM Tris, pH 7.8, 0.5 mg/mL BSA, 150 mM NaCl), supplemented with EDTA, LANCE Eu-W1024 anti-phosphotyrosine (PY20), (PerkinElmer, Catalog #AD0067) and Streptavidin SureLight APC (PerkinElmer Catalog #CR130-100), for a final concentration of 15 mM, 1.5 nM and 75 nM, respectively. HTRF signals were read after 30 minutes incubation at room temperature on a PHERAstar FS plate reader (BMG LAB TECH). Data was analyzed with IDBS XLfit and GraphPad Prism 5.0 software using a four parameter dose response curve to determine IC50 for each compound.
(In general: TR-FRET usually uses a lanthanide donor and a delayed reading to cut background.)

The target of test [3] is catalytic domain (JH1, amino acids 826-1132) of human JAK2 (Homo sapiens (Human), UniProt O60674). The test is described as follows: JAK2 LanthaScreen JH1 Binding Assay. As to conditions: JAK2 JH1 1.5 nM, 50 nM tracer, 2 hours at 25° C.; read-out: JH1 BIND IC50. On the procedure: Example A. JAK2 LanthaScreen JH1 Binding Assay
JAK2 JH1 binding assay utilizes catalytic domain (JH1, amino acids 826-1132) of human JAK2 expressed as N-terminal FLAG-tagged, biotinylated protein in a baculovirus expression system (Carna Biosciences, Product #08-445-20N). The assay was conducted in black 384-well polystyrene plates in a final reaction volume of 20 μL. JAK2 JH1 (1.5 nM) was incubated with compounds (100 nL serially diluted in DMSO) in the presence of 50 nM Fluorescent JAK2-JH1 Tracer and 0.5 nM Streptavidin-Tb cryptate (Cisbio Part #610SATLB) in assay buffer (50 mM Tris, pH=7.5, 10 mM MgCl2, 0.01% Brij-35, 0.1% BSA, 1 mM EGTA, 5% Glycerol and 5 mM DTT). Non-specific binding was accessed in the presence of 2 mM ATP. After incubation for 2 hours at 25° C., LanthaScreen signals were read on a PHERAstar FS plate reader (BMG LABTECH). Data was analyzed with IDBS XLfit and GraphPad Prism 5.0 software using a four parameter dose response curve to determine IC50 for each compound.

Test [4] concerns the target pseudo-kinase domain (JH2, amino-acids 536-812) of human V617F mutant JAK2 (Homo sapiens (Human), UniProt O60674, F794H/V617F/W659A/W777A). Briefly: JAK2 LanthaScreen JH2-V617F Binding Assay. As to conditions: JAK2 JH2-V617F 0.26 nM, 50 nM tracer, 1 hour at 25° C.; read-out: JH2 BIND V617F IC50. As to the method:
Example C. JAK2 LanthaScreen JH2-V617F Binding Assay
as §1, with “JH2-V617F” for “JH2-WT”, “V617F mutant” for “Wild Type”, “#79498).” for “#79463).”, “JH2-V617F (0.26” for “JH2-WT (0.145”, “LABTECH).” for “LAB TECH).”

Chain of pseudo-kinase domain (JH2, amino-acids 536-812) of human Wild Type JAK2 (O60674 536-812 W659A/W777A/F794H): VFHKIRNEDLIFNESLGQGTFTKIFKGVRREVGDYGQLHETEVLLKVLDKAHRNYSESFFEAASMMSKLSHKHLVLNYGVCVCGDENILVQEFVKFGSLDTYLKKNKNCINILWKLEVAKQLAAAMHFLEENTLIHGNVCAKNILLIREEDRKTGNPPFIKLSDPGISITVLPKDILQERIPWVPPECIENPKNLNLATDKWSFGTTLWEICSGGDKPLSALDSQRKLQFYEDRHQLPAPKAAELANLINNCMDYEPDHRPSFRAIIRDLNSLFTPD
Chain of pseudo-kinase domain (JH2, amino-acids 536-812) of human V617F mutant JAK2 (O60674 536-812 V617F/W659A/W777A/F794H): as the sequence (O60674 536-812 W659A/W777A/F794H) above, with V82F counted along it
Chain of catalytic domain (JH1, amino acids 808-1132) of human JAK2 (O60674 808-1132): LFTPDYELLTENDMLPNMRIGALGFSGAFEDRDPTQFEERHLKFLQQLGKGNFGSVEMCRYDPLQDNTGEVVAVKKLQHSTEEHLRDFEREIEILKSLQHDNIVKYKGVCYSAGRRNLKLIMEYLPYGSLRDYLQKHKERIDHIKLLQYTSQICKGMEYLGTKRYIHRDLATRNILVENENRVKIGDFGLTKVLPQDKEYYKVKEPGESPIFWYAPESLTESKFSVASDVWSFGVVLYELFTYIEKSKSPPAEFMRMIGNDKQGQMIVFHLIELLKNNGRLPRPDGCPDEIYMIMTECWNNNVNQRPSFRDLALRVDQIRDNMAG
Chain of catalytic domain (JH1, amino acids 826-1132) of human JAK2 (O60674 826-1132): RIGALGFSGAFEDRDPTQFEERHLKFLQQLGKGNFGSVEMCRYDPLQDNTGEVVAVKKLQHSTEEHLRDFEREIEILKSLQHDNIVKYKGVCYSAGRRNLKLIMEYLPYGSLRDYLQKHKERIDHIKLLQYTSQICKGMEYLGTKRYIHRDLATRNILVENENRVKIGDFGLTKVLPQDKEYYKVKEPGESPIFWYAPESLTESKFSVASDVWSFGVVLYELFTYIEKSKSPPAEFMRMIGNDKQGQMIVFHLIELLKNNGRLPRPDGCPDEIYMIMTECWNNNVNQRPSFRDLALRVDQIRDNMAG

Take `Cc1cc(-c2c(-c3ccc(NC4CCOCC4)cc3)c3c4cc(-c5cnn(C)c5)[nH]c4ncc3n(C)c2=O)on1` [Example 30, 6-Methyl-2-(1-methyl-1H-pyrazol-4-yl)-8-(3-methylisoxazol-5-yl)-9-(4-((tetrahydro-2H-pyran-4-yl)amino)phenyl)-3,6-dihydro-7H-pyrrolo[3,2-f][1,7]naphthyridin-7-one]: the IC50 was no more than 100 nM in test [1], 500 to 1000 nM in test [2], 500 to 1000 nM in test [3] and no more than 100 nM in test [4].
Regarding `Cc1cc(-c2c(-c3ccc(C(=O)Nc4ccc5oc(C)nc5c4)cc3)c3c4cc(-c5cnn(C)c5)[nH]c4ncc3n(C)c2=O)on1` [Example 26, 4-(6-Methyl-2-(1-methyl-1H-pyrazol-4-yl)-8-(3-methylisoxazol-5-yl)-7-oxo-6,7-dihydro-3H-pyrrolo[3,2-f][1,7]naphthyridin-9-yl)-A-(2-methylbenzo[d]oxazol-5-yl)benzamide], the IC50 was no more than 100 nM in test [1], 100 to 500 nM in test [2], 100 to 500 nM in test [3] and no more than 100 nM in test [4].
Regarding `COC1CCC(c2cc(=O)n(C)c3cnc4[nH]c(-c5cnn(C)c5)cc4c23)CC1` (centres unmarked) [Example 24, 9-(4-methoxycyclohexyl)-6-methyl-2-(1-methyl-1H-pyrazol-4-yl)-3,6-dihydro-7H-pyrrolo[3,2-f][1,7]naphthyridin-7-one], the IC50 in test [1], in test [2], in test [3] and in test [4] was no more than 100 nM each time.
As to `CS(=O)(=O)C1CCN(Cc2ccc(-c3cc4c(ncc5[nH]c(=O)c(-c6ccc(C(=O)O)cc6)cc54)[nH]3)cc2)CC1` [Example 2, 4-(2-(4-((4-(Methylsulfonyl)piperidin-1-yl)methyl)phenyl)-7-oxo-6,7-dihydro-3H-pyrrolo[3,2-f][1,7]naphthyridin-8-yl)benzoic acid], the IC50 in test [1] was no more than 100 nM; in test [2], greater than 10000 nM; in test [3], greater than 10000 nM; in test [4] it was no more than 100 nM.
Turning to `CS(=O)(=O)C1CCN(Cc2ccc(-c3cc4c(ncc5[nH]c(=O)c(-c6ccccc6)cc54)[nH]3)cc2)CC1` [Example 1, 2-(4-((4-(Methylsulfonyl)piperidin-1-yl)methyl)phenyl)-8-phenyl-3,6-dihydro-7H-pyrrolo[3,2-f][1,7]naphthyridin-7-one], the IC50 is 1000 to 10000 nM in test [1], greater than 10000 nM in test [2], 1000 to 10000 nM in test [3] and 1000 to 10000 nM in test [4].
With `Cc1cc(-c2c(-c3ccc(C(=O)NCCO)cc3)c3c4cc(-c5cnn(C)c5)[nH]c4ncc3n(C)c2=O)on1` [Example 25, N-(2-hydroxyethyl)-4-(6-methyl-2-(1-methyl-1H-pyrazol-4-yl)-8-(3-methylisoxazol-5-yl)-7-oxo-6,7-dihydro-3H-pyrrolo[3,2-f][1,7]naphthyridin-9-yl)benzamide], the IC50 in test [1] is no more than 100 nM; in test [2], 100 to 500 nM; in test [3], 500 to 1000 nM; in test [4], no more than 100 nM.
Take `COCCS(=O)(=O)C1CCN(c2cc3c4c(-c5ccc(C(=O)N(C)C)cc5)c(-c5cnn(C)c5)[nH]c4ncc3n(C)c2=O)CC1` [Example 40, 4-(8-(4-((2-Methoxyethyl)sulfonyl)piperidin-1-yl)-6-methyl-2-(1-methyl-1H-pyrazol-4-yl)-7-oxo-6,7-dihydro-3H-pyrrolo[3,2-f][1,7]naphthyridin-1-yl)-N,N-dimethylbenzamide]: the IC50 in test [1] lay in the range of 100 to 500 nM; in test [2], 1000 to 10000 nM; in test [3], 1000 to 10000 nM; in test [4], 100 to 500 nM.
As for `CN(C)C(=O)c1cc2c3c(-c4ccc5c(cnn5C)c4)c(-c4cnn(C)c4)[nH]c3ncc2n(C)c1=O` [Example 43, N,N,6-trimethyl-1-(1-methyl-1H-indazol-5-yl)-2-(1-methyl-1H-pyrazol-4-yl)-7-oxo-6,7-dihydro-3H-pyrrolo[3,2-f][1,7]naphthyridine-8-carboxamide], the IC50 in test [1] is no more than 100 nM; in test [2], 1000 to 10000 nM; in test [3], 1000 to 10000 nM; in test [4], no more than 100 nM.
Turning to `Cc1cc(-c2c(-c3ccccc3)c3c4cc(-c5cnn(C)c5)[nH]c4ncc3n(C)c2=O)on1` [Example 23, 6-methyl-2-(1-methyl-1H-pyrazol-4-yl)-8-(3-methylisoxazol-5-yl)-9-phenyl-3,6-dihydro-7H-pyrrolo[3,2-f][1,7]naphthyridin-7-one], the IC50 in test [1] was no more than 100 nM; in test [2], 100 to 500 nM; in test [3], 100 to 500 nM; in test [4], no more than 100 nM.
Turning to `Cc1c(-c2ccc(Cl)cc2)c(=O)n(C)c2cnc3[nH]c(-c4ccc(CN5CCC(S(C)(=O)=O)CC5)cc4)cc3c12` [Example 10, 8-(4-Chlorophenyl)-6,9-dimethyl-2-(4-((4-(methylsulfonyl)piperidin-1-yl)methyl)phenyl)-3,6-dihydro-7H-pyrrolo[3,2-f][1,7]naphthyridin-7-one], the IC50 in test [1] is no more than 100 nM; in test [2], 100 to 500 nM; in test [3], 100 to 500 nM; in test [4], no more than 100 nM.
Turning to `COc1ccc(-c2c(-c3cnn(C)c3)[nH]c3ncc4c(cc(C(=O)N(C)C)c(=O)n4C)c23)cc1` [Example 42, 1-(4-Methoxyphenyl)-N,N,6-trimethyl-2-(1-methyl-1H-pyrazol-4-yl)-7-oxo-6,7-dihydro-3H-pyrrolo[3,2-f][1,7]naphthyridine-8-carboxamide], the IC50 is no more than 100 nM in test [1], 1000 to 10000 nM in test [2], 1000 to 10000 nM in test [3] and no more than 100 nM in test [4].

For orientation: IC50 means the concentration that gives 50% inhibition.
